# Measured values reported in BindingDB's records for doi:10.1016/j.bmcl.2007.04.051 (Eli Lilly, 2007).
# Legend:
# Estrogen receptor beta = Estrogen receptor beta (Homo sapiens, UniProt Q92731); assay: Estrogen Receptor Binding Assay.; conditions: pH 7.5; 22 °C
# Protocol: (§1) The binding affinities were determined by a competitive radiometric binding assay using [3H]estradiol as tracer. The Kd for 3H-estradiol was determined by saturation binding to ER receptors. The IC50 values for compounds were converted to Ki using Cheng-Prusoff equation.
# Estrogen receptor = target: T1, Estrogen receptor (Homo sapiens, UniProt P03372); assay: Estrogen Receptor Binding Assay.; conditions: pH 7.5; 22 °C
# T1 sequence (P03372 whole entry): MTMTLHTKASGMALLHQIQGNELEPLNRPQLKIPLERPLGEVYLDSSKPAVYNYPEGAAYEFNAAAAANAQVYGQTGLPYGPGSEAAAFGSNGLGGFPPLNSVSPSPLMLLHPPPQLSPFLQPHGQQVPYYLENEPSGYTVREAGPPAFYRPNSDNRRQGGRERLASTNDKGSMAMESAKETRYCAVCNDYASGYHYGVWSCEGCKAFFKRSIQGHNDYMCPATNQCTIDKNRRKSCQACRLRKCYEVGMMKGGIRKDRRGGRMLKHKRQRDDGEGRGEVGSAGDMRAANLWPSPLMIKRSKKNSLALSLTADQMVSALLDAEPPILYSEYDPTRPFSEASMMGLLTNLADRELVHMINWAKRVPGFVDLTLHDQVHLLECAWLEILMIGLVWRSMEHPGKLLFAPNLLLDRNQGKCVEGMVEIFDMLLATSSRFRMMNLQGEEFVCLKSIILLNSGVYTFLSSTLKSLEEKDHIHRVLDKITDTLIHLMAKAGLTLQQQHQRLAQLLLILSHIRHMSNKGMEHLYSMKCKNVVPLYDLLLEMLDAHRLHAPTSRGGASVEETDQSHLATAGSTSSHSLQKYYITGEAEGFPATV
# Protocol: as §1
# Sequence of Estrogen receptor beta (Q92731 whole entry): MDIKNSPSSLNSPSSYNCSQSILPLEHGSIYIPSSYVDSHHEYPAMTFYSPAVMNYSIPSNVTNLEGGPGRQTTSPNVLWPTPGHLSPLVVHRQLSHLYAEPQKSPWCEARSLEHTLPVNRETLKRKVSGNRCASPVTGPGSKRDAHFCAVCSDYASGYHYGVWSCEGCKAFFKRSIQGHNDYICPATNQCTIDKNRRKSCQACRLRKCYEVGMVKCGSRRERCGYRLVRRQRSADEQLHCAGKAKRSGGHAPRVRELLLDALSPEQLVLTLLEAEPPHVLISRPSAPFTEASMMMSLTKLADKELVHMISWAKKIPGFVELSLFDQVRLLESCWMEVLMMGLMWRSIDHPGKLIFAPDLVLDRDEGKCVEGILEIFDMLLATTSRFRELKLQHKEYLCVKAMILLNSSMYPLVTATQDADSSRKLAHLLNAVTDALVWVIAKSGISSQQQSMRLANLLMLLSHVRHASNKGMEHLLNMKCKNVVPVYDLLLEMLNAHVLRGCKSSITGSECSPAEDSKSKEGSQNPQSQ
SMILES,Ki (Estrogen receptor beta) [nM],Ki (Estrogen receptor) [nM]
"Oc1ccc([C@@H]2Oc3ccccc3[C@@H]3CCC[C@@H]32)cc1 (racemic) [4-[(2R,6S,7R)-8-oxatricyclo[7.4.0.0^{2,6}]trideca-1(9),10,12-trien-7-yl]phenol]",22.1,40
Oc1ccc([C@@H]2Oc3ccc(O)cc3[C@@H]3CCCCC[C@@H]32)cc1 [racemic mixture],0.88,6.11
"Oc1cccc([C@@H]2Oc3ccc(O)cc3[C@@H]3CCC[C@@H]32)c1 (racemic) [(2R,6S,7R)-7-(3-hydroxyphenyl)-8-oxatricyclo[7.4.0.0^{2,6}]trideca-1(9),10,12-trien-12-ol]",,65
Oc1ccc([C@@H]2CCc3cc(O)ccc3O2)cc1 [racemic mixture],,126
Oc1ccc([C@@H]2Oc3cccc(O)c3[C@@H]3CCC[C@@H]32)cc1 [racemic mixture],0.66,0.35
Oc1ccc([C@@H]2Oc3ccc(O)cc3[C@@H]3CCCC[C@@H]32)cc1 [racemic mixture],0.63,2.88
Oc1ccc([C@@H]2Oc3cc(O)ccc3[C@@H]3CCC[C@@H]32)cc1 [racemic mixture],18.9,41
Oc1ccc2c(c1)[C@@H]1CCC[C@@H]1[C@H](c1ccccc1)O2 [racemic mixture],,267
